Drawing on PubChem BioAssay (NCI), this text covers GI50 and TGI for eight molecules.

Among the test systems are UACC-257 melanoma; SK-MEL-5 melanoma; SK-MEL-2 melanoma; MOLT-4 leukemia; UACC-62 melanoma; HOP-62 NSCLC; NCI-H226 lung; 786-0 renal; HL-60(TB) leukemia; HOP-92 NSCLC.
Assay in all cases: NCI anticancer screen, dose series, 48 h

Values joined by “and” are separate entries in the source; they are usually repeats but may differ in a detail not shown here. Equal entries are not always repeated.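 Cells were grown in 96-well plates and exposed to each compound for 48 hours at five concentrations; endpoints were interpolated linearly between bracketing concentrations, or set to the highest concentration if not reached. The concentration for 50% growth inhibition is given as GI50. TGI is the concentration that stops growth completely.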

`O=C1NCc2ccc3c(-c4cccc(Cl)c4)c[nH]c3c21`: the GI50 in the assay with UACC-257 melanoma is above 42.9 µM; in the assay with SK-MEL-5 melanoma, 0.269 µM; in the assay with SK-MEL-2 melanoma, 0.317 µM; with MOLT-4 leukemia, 0.256 µM; in the assay on UACC-62 melanoma it was 0.278 µM; in the assay on HOP-62 NSCLC, 0.324 µM. For the same molecule, the GI50 in the assay with NCI-H226 lung is 28.9 µM; with 786-0 renal, 0.276 µM; in the assay on HL-60(TB) leukemia, 0.146 µM; in the assay with HOP-92 NSCLC it was 3.22 µM. Besides, the TGI in the assay with UACC-257 melanoma is above 50 µM; in the assay with SK-MEL-5 melanoma, above 20.4 µM; with SK-MEL-2 melanoma, above 50 µM; in the assay on MOLT-4 leukemia it was above 50 µM; with UACC-62 melanoma, above 50 µM; with HOP-62 NSCLC, above 50 µM. Moreover, the TGI in the assay on NCI-H226 lung, with 786-0 renal and in the assay with HOP-92 NSCLC was above 50 µM each time.
With `CS(=O)(=O)CCNCc1nc(-c2ccc3ncnc(Nc4ccc(F)c(Cl)c4)c3c2)cs1`, the GI50 in the assay with UACC-257 melanoma is above 25 µM; in the assay with SK-MEL-5 melanoma, 11.5 µM; in the assay with SK-MEL-2 melanoma, above 17.6 µM; with MOLT-4 leukemia, 15.3 µM; in the assay with UACC-62 melanoma, 17.6 µM; with HOP-62 NSCLC it was above 24.1 µM. Moreover, the GI50 in the assay on NCI-H226 lung is above 18.1 µM; in the assay on 786-0 renal it was 22.9 µM; in the assay on HL-60(TB) leukemia, above 12.3 µM; in the assay on HOP-92 NSCLC it was 9.82 µM. Also, the TGI in the assay with UACC-257 melanoma, with SK-MEL-5 melanoma, in the assay on SK-MEL-2 melanoma, in the assay on MOLT-4 leukemia, in the assay with UACC-62 melanoma and with HOP-62 NSCLC was above 25 µM throughout. The TGI was above 25 µM in the assay on NCI-H226 lung, above 25 µM with 786-0 renal, above 17.8 µM in the assay on HL-60(TB) leukemia and above 25 µM in the assay with HOP-92 NSCLC.
Regarding `CNC(=O)c1cc(OC2CCC(NC(=O)Nc3ccc(Cl)c(C(F)(F)F)c3)CC2)ccn1` (stereo not drawn), the GI50 with UACC-257 melanoma is 5.68 µM; in the assay on SK-MEL-5 melanoma it was 3.07 µM; in the assay with SK-MEL-2 melanoma, 15.8 µM; in the assay with MOLT-4 leukemia it was 4 µM; with UACC-62 melanoma, 5.41 µM; in the assay with HOP-62 NSCLC it was 15 µM. For the same molecule, the GI50 is 9.99 µM with NCI-H226 lung, 8.34 µM with 786-0 renal, 11.7 µM with HL-60(TB) leukemia and 6.8 µM with HOP-92 NSCLC. In addition, the TGI amounted to 20.3 µM with UACC-257 melanoma; 10.9 µM in the assay with SK-MEL-5 melanoma; 38.3 µM in the assay with SK-MEL-2 melanoma; 21.5 µM with MOLT-4 leukemia; 19.4 µM with UACC-62 melanoma; 31.4 µM in the assay with HOP-62 NSCLC. Also, the TGI in the assay on NCI-H226 lung amounted to 25.6 µM; with 786-0 renal, 25 µM; in the assay on HL-60(TB) leukemia, 50.2 µM; with HOP-92 NSCLC, 27.1 µM.
With `COc1ccc(-c2nn3ncccc3c2-c2ccnc(Nc3ccc(Cl)c(C(F)(F)F)c3)n2)cc1`, the GI50 with UACC-257 melanoma was 11.5 µM; in the assay with SK-MEL-5 melanoma, 7.16 µM; with SK-MEL-2 melanoma, 11.6 µM; with MOLT-4 leukemia, 10.9 µM; in the assay with UACC-62 melanoma, 9.36 µM; in the assay with HOP-62 NSCLC, 15.5 µM. For the same molecule, the GI50 was 10.5 µM in the assay on NCI-H226 lung, 11 µM in the assay with 786-0 renal, 11.9 µM in the assay with HL-60(TB) leukemia and 4.54 µM in the assay on HOP-92 NSCLC. Further, the TGI with UACC-257 melanoma is above 25 µM; with SK-MEL-5 melanoma it was above 22 µM; with SK-MEL-2 melanoma, above 25 µM; with MOLT-4 leukemia it was above 25 µM; with UACC-62 melanoma, above 25 µM; in the assay with HOP-62 NSCLC it was above 25 µM. Besides, the TGI is above 25 µM in the assay on NCI-H226 lung, above 25 µM with 786-0 renal, above 25 µM in the assay on HL-60(TB) leukemia and 19.8 µM in the assay on HOP-92 NSCLC.
As to `O=P(O)(CCP(=O)(O)c1ccccc1)c1ccccc1`, the TGI in the assay with UACC-257 melanoma, in the assay on SK-MEL-5 melanoma, with SK-MEL-2 melanoma, in the assay on MOLT-4 leukemia, in the assay with UACC-62 melanoma and in the assay on HOP-62 NSCLC was above 100 µM in each case. For the same molecule, the TGI in the assay on NCI-H226 lung, in the assay with 786-0 renal, in the assay on HL-60(TB) leukemia and in the assay with HOP-92 NSCLC was above 100 µM throughout.
In the case of `CN1CC[C@@H](c2c(O)cc(O)c3c(=O)cc(-c4ccccc4Cl)oc23)[C@@H](O)C1`, the GI50 in the assay on UACC-257 melanoma is 0.125 µM and 0.137 µM; with SK-MEL-5 melanoma, 0.0631 µM; in the assay with SK-MEL-2 melanoma, 0.124 µM and 0.071 µM; in the assay with MOLT-4 leukemia it was 0.0429 µM and 0.0288 µM; in the assay with UACC-62 melanoma it was 0.0571 µM and 0.0424 µM; in the assay on HOP-62 NSCLC it was 0.117 µM and 0.0384 µM. Moreover, the GI50 is 0.0522 µM in the assay with NCI-H226 lung, 0.108 µM with 786-0 renal, 0.0148 µM in the assay on HL-60(TB) leukemia and 0.104 µM in the assay on HOP-92 NSCLC. The TGI in the assay with UACC-257 melanoma is 0.366 µM and 0.619 µM and 0.282 µM; in the assay on SK-MEL-5 melanoma, 0.265 µM and 0.182 µM; with SK-MEL-2 melanoma, 0.215 µM and 0.209 µM and 0.101 µM; in the assay with MOLT-4 leukemia, 0.662 µM and 0.521 µM; in the assay on UACC-62 melanoma it was 0.133 µM and 0.182 µM and 0.102 µM; in the assay with NCI-H226 lung, 0.301 µM and 0.821 µM. The TGI in the assay on 786-0 renal is 17.9 µM; in the assay on HL-60(TB) leukemia, 0.0693 µM and 0.338 µM; in the assay with HOP-92 NSCLC it was 0.517 µM and 1.87 µM.
For `C=C1CC2(OC1=O)C(=O)N(CCCCCCCN1C(=O)C3(CC(=C)C(=O)O3)c3ccccc31)c1ccccc12` (stereo not drawn), the GI50 with UACC-257 melanoma was 2.14 µM; with SK-MEL-5 melanoma it was 7.11 µM; with SK-MEL-2 melanoma, 7.51 µM; in the assay with MOLT-4 leukemia, 0.267 µM; with UACC-62 melanoma it was 1.27 µM; with HOP-62 NSCLC, 6.8 µM. Also, the GI50 was 1 µM with NCI-H226 lung, 1.49 µM with 786-0 renal, 0.992 µM with HL-60(TB) leukemia and 1.03 µM in the assay on HOP-92 NSCLC. In addition, the TGI in the assay with UACC-257 melanoma was 8.76 µM; in the assay with SK-MEL-5 melanoma, 13.7 µM; in the assay with SK-MEL-2 melanoma it was 17.2 µM; with MOLT-4 leukemia, 5.53 µM; in the assay with UACC-62 melanoma it was 4.82 µM; in the assay on HOP-62 NSCLC, 15.4 µM. Also, the TGI stood at 2.76 µM with NCI-H226 lung, 5.42 µM in the assay on 786-0 renal, 3.21 µM in the assay with HL-60(TB) leukemia and 3.64 µM in the assay with HOP-92 NSCLC.
Consider `COc1cc([C@H]2c3cc4c(cc3O[C@@]3(O)COC(=O)[C@@H]23)OCO4)cc(OC)c1OC`, for which the TGI with UACC-257 melanoma, with SK-MEL-5 melanoma, with SK-MEL-2 melanoma, in the assay on MOLT-4 leukemia, in the assay on UACC-62 melanoma and in the assay on HOP-62 NSCLC was above 100 µM each time. The TGI in the assay on NCI-H226 lung, with 786-0 renal, in the assay with HL-60(TB) leukemia and in the assay on HOP-92 NSCLC was above 100 µM each time.
